Patent publication US20040043083A1, “Anticancer composition comprising sesquiterpenes isolated from resina ferulae” (priority 2000, published 2004)
Values after ≈ are worked out from the molar mass of the structure shown.

Legend:
Assay type in all cases: cell-based
[1] = system: SK-MEL-2 (human melanoma cancer cell line); assay: Inhibition of human cancer cell line proliferation (SRB method), SK-MEL-2; details: SK-MEL-2 cells, 48 hours
Description: (§1) A549 (human lung cancer cell line), SK-OV-3 (human ovary cancer cell line), SK-MEL-2 ([…] melanoma cancer cell line), XF498 (Human CNS cancer cell line) and HCT-15 (human colic cancer cell line) were obtained from NCI of U.S. A. and subjected to subculture. The inhibition of the cancer cell line proliferation was determined by the SRB (sulforhodamine B) method in accordance with the procedure described by Skehan, P. et al. (J. Nat'l. Canc. Inst., 82, p1107, 1990) as follows.
(§2) 1) Each of the subcultured cancer cell lines was collected from the surface of the culture vessel, treated with a trypsin-CDTA solution, diluted, and added to each wall of a 96-well plat bottom microplate (Falcon Co.) in an amount of 5×10^3 (A549, HCT-15), 1×10^4 (SK-MEL-2, XF498) or 2×10^4 (SK-OV-3) cells/well, followed by incubation in a CO2 incubator to anchor the cells to the bottom surface. Then the culture medium was removed from the plate with suction, a solution containing a predetermined amount of a test sample (test solution) dissolved in culture medium was added to each well; and the mixture was futher cultured for 48 hours.
(§3) 2) Thereafter, the culture medium was removed from the plate with suction, and […] of 10% TCA (trichloro acetic acid) was added to each well. The plate was allowed to stand at room temperature for one hour to fix the cells, and was washed several times with distilled water to completely remove excess TCA and then dried.
(§4) 3) Each well was treated with 100 μl of an SRB staining solution (0.4% suforhodamine in 1% acetic acid) for 30 minutes, washed several times with 1% acetic acid to remove the remaining staining solution, and dried at room temperature.
(§5) 4) After adding 100 μl of 10 mM Trisma base solution (unbuffered) to each well, the plate was shaken with a titer plate shaker for 10 minutes to elute the staining solution from the cells, and the absorbance thereof at 520 nm was determined with a microplate reader.
(§6) 5) The degree of cancer cell proliferation (% cell growth, i.e., reverse of anticancer activity) of the cell line treated with the test solution was calculated by the following numerical formula wherein C is the number of cells in a control group treated with a culture medium instead of the test solution; Tz, the number of cells at time zero; and T, the number of cells treated with the test solution calculated based on measurement. Numerical formula 1 was used when Tz>T, numerical formula 2, when Tz<T.
(§7) Numerical formula 1=[(T−Tz)/(C−Tz)]×100
(§8) Numerical formula 2=[(T−Tz)/Tz]×100
(§9) 6) The amount of the samples needed for achieving 50% inhibition of the inhibiting cancer cell proliferation (ED50) was calculated from the observed degree of cell proliferation at various concentrations of the sample using the data regression of LOTUS program.

[2] = system: A549 (human lung cancer cell line); assay: Inhibition of human cancer cell line proliferation (SRB method), A549; details: A549 cells, 48 hours
Description: as §1, §2, §3, §4, §5, §6, §7, §8, §9

[3] = system: SK-OV-3 (human ovary cancer cell line); assay: Inhibition of human cancer cell line proliferation (SRB method), SK-OV-3; details: SK-OV-3 cells, 48 hours
Description: as §1, §2, §3, §4, §5, §6, §7, §8, §9

[4] = system: XF498 (human CNS cancer cell line); assay: Inhibition of human cancer cell line proliferation (SRB method), XF498; details: XF498 cells, 48 hours
Description: as §1, §2, §3, §4, §5, §6, §7, §8, §9

[5] = system: HCT-15 (human colic cancer cell line); assay: Inhibition of human cancer cell line proliferation (SRB method), HCT-15; details: HCT-15 cells, 48 hours
Description: as §1, §2, §3, §4, §5, §6, §7, §8, §9

SMILES | ED50 SK-MEL-2 [1] | ED50 A549 [2] | ED50 SK-OV-3 [3] | ED50 XF498 [4] | ED50 HCT-15 [5]
C/C(=C\COc1ccc2ccc(=O)oc2c1)CC[C@@H]1C(C)(C)[C@H]2CC[C@]1(C)O2 [Compound 5, farnesiferol C] | 3.9 µg/mL (≈ 10.2 µM) | 4.2 µg/mL (≈ 11 µM) | 7.2 µg/mL (≈ 18.8 µM) | 5.4 µg/mL (≈ 14.1 µM) | 4.3 µg/mL (≈ 11.2 µM)
C/C(=C\COc1ccc2ccc(=O)oc2c1)CC/C=C(\C)CCC(O)C(C)(C)O (stereo not drawn) [Compound 2, karatavicinol] | 5.7 µg/mL (≈ 14.2 µM) | 5.6 µg/mL (≈ 14 µM) | 11.6 µg/mL (≈ 29 µM) | 7.5 µg/mL (≈ 18.7 µM) | 7.0 µg/mL (≈ 17.5 µM)
CC(C)=C1CCC(C)C(C)(COc2ccc3ccc(=O)oc3c2)C1CCC(=O)O (stereo not drawn) [Compound 1, galbanic acid] | 12.3 µg/mL (≈ 30.9 µM) | 8.9 µg/mL (≈ 22.3 µM) | 14.5 µg/mL (≈ 36.4 µM) | 13.0 µg/mL (≈ 32.6 µM) | 9.7 µg/mL (≈ 24.3 µM)
CC(C)=CCC/C(C)=C/CC/C(C)=C/COc1ccc2ccc(=O)oc2c1 [Compound 3, umbelliprenin] | 6.7 µg/mL (≈ 18.3 µM) | 8.9 µg/mL (≈ 24.3 µM) | 9.4 µg/mL (≈ 25.6 µM) | 5.3 µg/mL (≈ 14.5 µM) | 4.1 µg/mL (≈ 11.2 µM)
C=C1CC[C@@H](O)C(C)(C)C1CC/C(C)=C/COc1ccc2ccc(=O)oc2c1 (stereo partly drawn) [Compound 4, farnesiferol B] | 7.1 µg/mL (≈ 18.6 µM) | 7.2 µg/mL (≈ 18.8 µM) | 10.0 µg/mL (≈ 26.1 µM) | 7.1 µg/mL (≈ 18.6 µM) | 4.3 µg/mL (≈ 11.2 µM)
N.N.[Cl][Pt][Cl] [Cisplastine, reference compound] | 1.2 µg/mL | 1.8 µg/mL | 1.5 µg/mL | 1.4 µg/mL | 3.2 µg/mL
